{"source": "patent US20240041838A1", "about": "“METHODS AND COMPOSITIONS FOR INHIBITION OF NEUTROPHIL RECRUITMENT IN MYCOCARDIAL ISCHEMIA-REPERFUSION INJURY” (University of Connecticut, priority 2022, published 2024)", "key": {"human neutrophils [1]": {"system": "human neutrophils", "assay": "microfluidic perfusion assay: neutrophil rolling and arrest on P-selectin/ICAM-1 with IL-8", "format": "cell-based", "details": "10 μM", "method": "The assembly of the microfluidic devices used in this study and the coating of coverslips with recombinant human P-selectin-Fc and ICAM-1-Fc with or without IL-8 have been described previously. Briefly, coverslips were coated with P-selectin-Fc (2 μg·ml^−1) and ICAM-1-Fc (10 μg·ml^−1) without or with IL-8 (10 μg·ml^−1) for two hours and then blocked for one hour with casein (1%) at RT. After coating, coverslips were sealed with polydimethylsiloxane chips by magnetic clamps to create flow chamber channels ˜29 μm high and ˜300 μm across. By modulating the pressure between the inlet well and the outlet reservoir, 6 dyn·cm^−2 wall shear stress was applied in all experiments.\nTo study the rolling and arrest of neutrophils, isolated human neutrophils (5×10^6 cells·ml^−1) were perfused in the microfluidic device over a substrate of recombinant human P-selectin-Fc and recombinant human ICAM-1-Fc with or without IL-8 under a shear stress of 6 dyn·cm^−2. […] Time-lapse images (one frame per second) were taken by an IX71 inverted research microscope (Olympus America) with a 40× NA 0.9 air objective during the perfusion to quantify rolling velocity. The quantification was done using the “Manual tracking” plugin in FIJI-ImageJ v2.0. Cell tracks (FIG. 1A) and rolling velocity were obtained (FIGS. 1B, 2C). After perfusion with neutrophils for 10 minutes, the microfluidic device was washed with RPMI-1640 without phenol red plus 2% HSA for 5 minutes. Then, the arrested neutrophils were counted in nine fields-of-view per group (FIG. 1D)."}, "human neutrophils [2]": {"system": "human neutrophils", "assay": "neutrophil viability by flow cytometry (Ghost Dye Blue 516)", "format": "cell-based", "details": "100 μM Nexinhib20, one hour at room temperature", "method": "After washes, neutrophils were incubated with Ghost Dye Blue 516 at RT for 15 minutes. After washes, cell fluorescence was assessed with an LSRII (BD Biosciences, San Jose, CA) and analyzed with FlowJo software (version 10.6)."}, "[3]": {"system": "mouse myocardial I/R injury", "assay": "infarct size (TTC-phthalo-blue staining) and left ventricle echocardiogram in mouse myocardial I/R injury", "format": "in vivo", "method": "Mice were subjected to 35 minutes of myocardial ischemia and 1 (for multi-photon microscopy and flow cytometry) or 22-26 (for TTC-phthalo-blue staining) hours of reperfusion. […] Briefly, anesthesia was induced with an intraperitoneal injection of ketamine hydrochloride (125 mg·kg^−1) and xylazine (12.5 mg·kg^−1). Mice were intubated with 24G×3/4″ Surflo i.v. catheter and ventilated using MiniVent 845 (Harvard Apparatus).\nSurgeries were performed under an SMZ168 Stereo Zoom microscope (Motic). Ischemia was achieved by ligating the left anterior descending coronary artery (LAD) using a 6-0 silk suture with a section of PE-10 tubing placed over the LAD, 1 mm from the tip of the normally positioned left atrium. One important problem in drug administration is water solubility, which greatly affects drug absorption and bioavailability. […] In clinics, the primary percutaneous coronary intervention aims to be performed less than 90 min (within 60 min is preferable) after the patient arrives. […] After occlusion for 35 minutes, reperfusion was initiated by releasing the ligature and removing the PE-10 tubing. The chest wall was closed, the animal extubated, and body temperature was maintained by use of a 37° C. warm pad. Hearts were harvested 1 or 22-26 hours later. The loosened suture was left in place and then retied for the purpose of evaluating the ischemic area. […]\nTo assess the ischemic area at risk after 22-26 hours of reperfusion, hearts were excised, infused with PBS and freshly prepared 10% phthalo-blue (PBS with 0.75% tween 20) through the aorta and coronary arteries in a retrograde fashion, frozen at −20° C. for 10 minutes, and sliced into five to six 1 mm cross-sections with the aid of a pre-freeze acrylic matrix (ZIVIC Labs). […] The infarct area (white), the area at risk (red and white), and the total left ventricle area from each section were measured using ZEN v3.1 (Zeiss). Ratios of infarct area/area at risk (FIG. 5B) and of area at risk/left ventricle (FIG. 5C) were calculated and expressed as percentages.\nTo quantify left ventricle function, we performed echocardiograms on mice before and seven days after myocardial I/R injury. […] Echocardiography loops were recorded in B and two-dimensional-targeted M modes in longitudinal and short-axis views on a Vevo 3100 High-Resolution Imaging System equipped with an MX550D transducer (VisualSonics, Toronto, ON, Canada). Mice were fixed on a heated table and heart rate was monitored during the procedure. […] Left ventricular ejection fraction was determined by left ventricle tracing relating the end-systolic left ventricle area as the minimal left ventricle cross-sectional area to the end-diastolic left ventricle area as the maximum left ventricle cross-sectional area in long-axis views. […]"}}, "data": [{"smiles": "CC(C)(C)C(=O)/C(=C\\c1cccc([N+](=O)[O-])c1)n1cncn1", "note": "[Nexinhib20, 4,4-dimethyl-1-(3-nitrophenyl)-2-(1H-1,2,4-triazol-1-yl)-1-penten-3-one]", "values": [{"measurement": "effect of IL-8 on rolling velocity of treated neutrophils", "setting": "human neutrophils [1]; RT 1 hour", "result": "did not slow down"}, {"measurement": "neutrophil arrest on IL-8 substrate", "setting": "human neutrophils [1]; RT 1 hour before perfusion", "result": "failed to arrest"}, {"measurement": "decrease of number of arrested neutrophils", "setting": "human neutrophils [1]; RT 1 hour, P-selectin/ICAM-1/IL-8, 6 dyn·cm^−2", "result": "about 90%"}, {"measurement": "number of arrested neutrophils", "setting": "human neutrophils [1]; RT 1 hour, P-selectin/ICAM-1/IL-8, 6 dyn·cm^−2, vehicle about 200", "result": "about 20 cells per field-of-view"}, {"measurement": "neutrophil viability", "setting": "human neutrophils [2]", "result": "~100", "unit": "%"}, {"measurement": "infarct area percentage (infarct area/area at risk)", "setting": "[3]; I/R 35 min/24 hours, i.p. 30 minutes before reperfusion, vehicle about 50%", "result": "about 40%"}, {"measurement": "change of ejection fraction after myocardial I/R injury", "setting": "[3]; echocardiogram before and 7 days after I/R, vehicle reduced by about 25%", "result": "no significant reduction"}, {"measurement": "change of fractional shortening after myocardial I/R injury", "setting": "[3]; echocardiogram before and 7 days after I/R, vehicle reduced by about 30%", "result": "no significant reduction"}, {"measurement": "reduction of infarct size", "setting": "[3]; mouse myocardial I/R injury", "result": "about 20%"}]}]}
